Consider four compounds from US6008352A, “1-(isoquinolin-1-yl)-4-(1-phenylmethyl) piperazines; dopamine receptor subtype specific ligands” (Neurogen Corporation, priority 1998, dated 1999).

The target of test [1] is T1, D2 receptor (Chlorocebus aethiops, UniProt P52702).
T1 construct: expressed in transfected cells; host or cells: COS cells
Description: D2 receptor binding assay (3H-YM 09151-2 displacement). On the set-up: species or system African Green monkey. The following applies: 0.5 nM 3H-YM 09151-2; nonspecific binding with 1 mM spiperone. The protocol: (§1) 1. Assay For D2 And D4 Receptor Binding Activity
(§2) Pellets of COS cells containing recombinantly produced D2 or D4 receptors from African Green monkey are used for the assays. The sample is homogenized in 100 volumes (w/vol) of 0.05 M Tris HCl buffer at 4° C. and pH 7.4. The sample is then centrifuged at 30,000×g and resuspended and rehomogenized. The sample is again centrifuged as described above and the final tissue sample is frozen until use. The tissue is resuspended 1:20 (wt/vol) in 0.05 M Tris HCl buffer containing 100 mM NaCl.
(§3) Incubations are carried out at […] and contain 0.4 ml of tissue sample, 0.5 nM ^3 H-YM 09151-2 and the compound of interest in a total incubation of 1.0 ml. Nonspecific binding is defined as that binding found in the presence of 1 mM spiperone; without further additions, nonspecific binding is less than 20% of total binding. Binding characteristics for representative examples of this invention for the D2 and D4 receptor subtypes are shown in Table 2 below for rat striatal homogenates. The binding characteristics of compounds of Formula I for the D4 receptor, expressed in nM, generally range from about 0.5 nanomolar (nM) to about 25 nanomolar (nM). These compounds typically have binding constants for the D2 receptor of from about 200 nM to more than 1000 nM.

For test [2], the target named is D4 receptor. Description: D4 receptor binding assay (3H-YM 09151-2 displacement). On the set-up: species or system African Green monkey. The following applies: 0.5 nM 3H-YM 09151-2; nonspecific binding with 1 mM spiperone. The protocol:
as §1, §2, §3

T1 sequence (P52702 whole entry): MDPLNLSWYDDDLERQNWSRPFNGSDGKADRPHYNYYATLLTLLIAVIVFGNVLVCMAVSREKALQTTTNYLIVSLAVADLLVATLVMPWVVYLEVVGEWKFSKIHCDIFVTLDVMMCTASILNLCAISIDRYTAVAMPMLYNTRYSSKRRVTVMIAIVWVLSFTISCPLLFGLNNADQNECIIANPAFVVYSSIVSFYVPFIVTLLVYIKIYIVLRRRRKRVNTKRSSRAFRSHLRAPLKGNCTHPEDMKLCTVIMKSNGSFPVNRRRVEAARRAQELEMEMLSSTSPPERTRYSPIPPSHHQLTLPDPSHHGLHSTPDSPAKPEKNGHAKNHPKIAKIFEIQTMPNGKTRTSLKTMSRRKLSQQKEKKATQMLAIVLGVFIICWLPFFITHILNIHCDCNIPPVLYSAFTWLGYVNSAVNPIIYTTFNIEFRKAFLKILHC

On to `Clc1ccc(CN2CCN(c3nccc4ccccc34)CC2)cc1` [Compound 1], for which the Ki (in general, the equilibrium dissociation constant of an inhibitor or competing ligand from its target) in test [1] was 556 nM; in test [2], 5 nM.

Turning to `Fc1ccc(CN2CCN(c3nccc4ccccc34)CC2)cc1F` [Compound 2], the inhibition constant (Ki) worked out at 1000 nM in test [1] and 13 nM in test [2].

`c1ccc2c(N3CCN(Cc4ccc5c(c4)OCO5)CC3)nccc2c1` [Compound 4] came in with a Ki in test [2] of 19 nM.

As to `Cc1ccc(CN2CCN(c3nccc4ccccc34)CC2)cc1` [Compound 6], the inhibitory constant (Ki) in test [1] was found to be 220 nM; in test [2] it was 9 nM.
